In PubChem BioAssay (NCI):
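Interpolation was linear, between the two tested concentrations surrounding the appropriate level; five concentrations were tested over 48 hours in 96-well plates. TGI marks complete inhibition of growth.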

How the values were obtained:
Test in all cases: growth of human tumour cells (NCI), 48 h
786-0 renal = system: 786-0 renal
A498 renal = system: A498 renal
A549 NSCLC = system: A549 NSCLC
ACHN renal = system: ACHN renal
BT-549 breast = system: BT-549 breast
CAKI-1 renal = system: CAKI-1 renal
CCRF-CEM leukemia = system: CCRF-CEM leukemia
COLO 205 colon = system: COLO 205 colon
DU-145 prostate = system: DU-145 prostate
EKVX NSCLC = system: EKVX NSCLC
HCC-2998 colon = system: HCC-2998 colon
HCT-116 colon = system: HCT-116 colon
HCT-15 colon = system: HCT-15 colon
HL-60(TB) leukemia = system: HL-60(TB) leukemia
HOP-62 NSCLC = system: HOP-62 NSCLC
HOP-92 NSCLC = system: HOP-92 NSCLC
HS 578T breast = system: HS 578T breast
HT29 colon = system: HT29 colon
IGROV1 ovarian = system: IGROV1 ovarian
K-562 leukemia = system: K-562 leukemia
KM12 colon = system: KM12 colon
LOX IMVI melanoma = system: LOX IMVI melanoma
M14 melanoma = system: M14 melanoma
MALME-3M melanoma = system: MALME-3M melanoma
MCF7 breast = system: MCF7 breast
MDA-MB-231 breast = system: MDA-MB-231 breast
MDA-MB-435 = system: MDA-MB-435
MDA-N = system: MDA-N
MOLT-4 leukemia = system: MOLT-4 leukemia
NCI-H226 lung = system: NCI-H226 lung
NCI-H23 lung = system: NCI-H23 lung
NCI-H460 lung = system: NCI-H460 lung
NCI-H522 lung = system: NCI-H522 lung
NCI/ADR-RES ovarian = system: NCI/ADR-RES ovarian
OVCAR-3 ovarian = system: OVCAR-3 ovarian
OVCAR-4 ovarian = system: OVCAR-4 ovarian
OVCAR-5 ovarian = system: OVCAR-5 ovarian
OVCAR-8 ovarian = system: OVCAR-8 ovarian
PC-3 prostate = system: PC-3 prostate
RPMI-8226 leukemia = system: RPMI-8226 leukemia
RXF 393 renal = system: RXF 393 renal
SF-268 CNS = system: SF-268 CNS
SF-295 CNS = system: SF-295 CNS
SF-539 CNS = system: SF-539 CNS
SK-MEL-28 melanoma = system: SK-MEL-28 melanoma
SK-MEL-5 melanoma = system: SK-MEL-5 melanoma
SK-OV-3 ovarian = system: SK-OV-3 ovarian
SN12C renal = system: SN12C renal
SNB-19 CNS = system: SNB-19 CNS
SNB-75 CNS = system: SNB-75 CNS
SR leukemia = system: SR leukemia
SW-620 colon = system: SW-620 colon
T-47D breast = system: T-47D breast
TK-10 renal = system: TK-10 renal
U251 CNS = system: U251 CNS
UACC-257 melanoma = system: UACC-257 melanoma
UO-31 renal = system: UO-31 renal
SK-MEL-2 melanoma = system: SK-MEL-2 melanoma
UACC-62 melanoma = system: UACC-62 melanoma

Measured: TGI

COc1cc([C@@H]2C3C(=O)c4ccccc4C3[C@@H](c3cc(OC)c(OC)c(OC)c3)C23Cc2ccccc2C3=O)cc(OC)c1OC (some centres not stated)
7.85 µM: CAKI-1 renal
not listed: SK-MEL-2 melanoma | UACC-62 melanoma
> 100 µM: all other assays above

CC(=O)c1cc(I)c(O)c2ncccc12
7.38 µM: OVCAR-8 ovarian
6.19 µM: HOP-92 NSCLC
7.81 µM: COLO 205 colon
5.6 µM: ACHN renal
7.9 µM: UACC-62 melanoma
7.44 µM: IGROV1 ovarian
8.98 µM: SR leukemia
5.7 µM: NCI-H226 lung
5.93 µM: HCT-116 colon
8.76 µM: RXF 393 renal
9.07 µM: 786-0 renal
6.53 µM: A498 renal
4.28 µM: HL-60(TB) leukemia
8.09 µM: MDA-MB-231 breast
4.45 µM: CCRF-CEM leukemia
8.24 µM: NCI/ADR-RES ovarian
9.86 µM: SF-268 CNS
9.61 µM: SF-295 CNS
6.06 µM: UACC-257 melanoma
4.09 µM: M14 melanoma
6.57 µM: OVCAR-3 ovarian | SF-539 CNS
5.08 µM: SK-MEL-5 melanoma
5.77 µM: MOLT-4 leukemia
6.97 µM: MALME-3M melanoma
6.82 µM: OVCAR-4 ovarian
8.45 µM: DU-145 prostate | NCI-H23 lung
not listed: SNB-75 CNS | UO-31 renal
> 10 µM: all other assays above

CC1=C(C(=O)N[C@@H](CC(C)C)C(=O)O)N2C(=O)[C@@H](NC(=O)[C@@H](N)Cc3ccccc3)[C@H]2SC1
not listed: HCT-116 colon | HOP-62 NSCLC | HT29 colon | NCI-H23 lung | SK-OV-3 ovarian | UO-31 renal
> 100 µM: all other assays above
